Test results from EP3262036B1, “THERAPEUTIC PYRIDAZINE COMPOUNDS AND USES THEREOF” (priority 2015, dated 2016).
Structures can show the parent of a compound that is named as a salt.

Molecular target: BRG1 (Homo sapiens, UniProt P51532)
Assay: biochemical
Format: binding
Settings: BRG1 HTRF IC50 (µM)
From the text: IC50 measurements for inhibitors using BRG1 TR-FRET Binding Assay

BRG1, sequence (P51532 1448-1575): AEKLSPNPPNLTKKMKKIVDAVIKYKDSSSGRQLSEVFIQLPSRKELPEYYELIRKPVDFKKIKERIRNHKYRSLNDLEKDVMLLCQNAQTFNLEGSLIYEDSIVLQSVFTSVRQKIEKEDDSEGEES

In order of falling IC50:
1. CC(=O)Nc1ccc(-c2ccccc2O)nn1 [Example 205, N-(6-(2-hydroxyphenyl)pyridazin-3-yl)acetamide]  1.08 µM
2. CN1CCC(c2cc(-c3ccccc3O)nnc2N)C1 (stereo not drawn) [Example 216, 2-(6-amino-5-(1-methylpyrrolidin-3-yl)pyridazin-3-yl)phenol 2,2,2-trifluoroacetate]  0.765 µM
3. Nc1nnc(-c2ccccc2O)cc1C1CCNC1 (stereo not drawn) [Example 215, 2-(6-amino-5-(pyrrolidin-3-yl)pyridazin-3-yl)phenol hydrochloride]  0.743 µM
4. Nc1nnc(-c2ccccc2O)cc1OC1CCc2ccccc21 (stereo not drawn) [Example 182, 2-(6-amino-5-((2,3-dihydro-1H-inden-1-yl)oxy)pyridazin-3-yl)phenol]  0.606 µM
5. CC(=O)N1[C@H](C)CN(c2cc(-c3ccccc3O)nnc2N)C[C@H]1C [Example 128, 1-((2R,6R)-4-(3-amino-6-(2-hydroxyphenyl)pyridazin-4-yl)-2,6-dimethylpiperazin-1-yl)ethan-1-one]  0.505 µM
6. Nc1nnc(-c2ccccc2O)cc1N1CCS(=O)(=O)CC1 [Example 46, 4-(3-amino-6-(2-hydroxyphenyl)pyridazin-4-yl)thiomorpholine 1,1-dioxide]  0.414 µM
7. CN1CCCN(c2cc(-c3ccccc3O)nnc2N)CC1 [Example 2, 2-(6-amino-5-(4-methyl-1,4-diazepan-1-yl)pyridazin-3-yl)phenol]  0.296 µM
8. Nc1nnc(-c2ccccc2O)cc1OC1CCCNC1 (stereo not drawn) [Example 245, 2-(6-amino-5-(piperidin-3-yloxy)pyridazin-3-yl)phenol]  0.281 µM
9. Nc1nnc(-c2ccccc2O)cc1N1CC2CCC(C1)N2c1ccc(C(=O)O)nc1 [Example 88, 5-(3-(3-amino-6-(2-hydroxyphenyl)pyridazin-4-yl)-3,8-diazabicyclo[3.2.1]octan-8-yl)picolinic acid]  0.218 µM
10. Nc1nnc(-c2ccccc2O)cc1N1CCNC(C(F)(F)F)C1 (stereo not drawn) [Example 23, 2-(6-amino-5-(3-(trifluoromethyl)piperazin-1-yl)pyridazin-3-yl)phenol]  0.172 µM
11. CC(Oc1cc(-c2ccccc2O)nnc1N)C(C)(C)C (stereo not drawn) [Example 164, 2-(6-amino-5-((3,3-dimethylbutan-2-yl)oxy)pyridazin-3-yl)phenol]  0.143 µM
12. CC(=O)N1CCCC(Oc2cc(-c3ccccc3O)nnc2N)C1 (stereo not drawn) [Example 247, 1-(3-((3-amino-6-(2-hydroxyphenyl)pyridazin-4-yl)oxy)piperidin-1-yl)ethanone]  0.137 µM
13. C[C@@H](Oc1cc(-c2ccccc2O)nnc1N)c1cccnc1 [Example 166, (R)-2-(6-amino-5-(1-(pyridin-3-yl)ethoxy)pyridazin-3-yl)phenol]  0.132 µM
14. CN(C)CC1CCCN(c2cc(-c3ccccc3O)nnc2N)C1 (stereo not drawn) [Example 21, 2-(6-amino-5-(3-((dimethylamino)methyl)piperidin-1-yl)pyridazin-3-yl)phenol]  0.116 µM
15. CC(C)[C@H](N)C(=O)N1CCN(c2cc(-c3ccccc3O)nnc2N)C[C@@H]1C [Example 158, 2-Amino-1-((R)-4-(3-amino-6-(2-hydroxyphenyl)pvridazin-4-yl)-2-methylpiperazin-1-yl)-3-methylbutan-1-one]  0.113 µM
16. CC(=O)N1[C@H](C)CN(c2cc(-c3ccccc3O)nnc2N)C[C@@H]1C [Example 139, 1-((2S,6R)-4-(3-amino-6-(2-hydroxyphenyl)pyridazin-4-yl)-2,6-dimethylpiperazin-1-yl)ethan-1-one]  0.106 µM
17. CC1CN(c2cc(-c3ccccc3O)nnc2N)CC(C)N1Cc1ccccc1 (stereo not drawn) [Example 37, 2-(6-amino-5-(4-benzyl-3,5-dimethylpiperazin-1 - yl)pyridazin-3-yl)phenol]  0.102 µM
18. Nc1nnc(-c2ccccc2O)cc1N1CCC(O)C1 (stereo not drawn) [Example 38, 1-(3-amino-6-(2-hydroxyphenyl)pyridazin-4-yl)pyrrolidin-3-ol]  0.0921 µM
19. Cc1ccc(S(=O)(=O)N2CC=C(c3cc(-c4ccccc4O)nnc3N)CC2)cc1 [Example 222, 2-(6-amino-5-(1-tosyl-1,2,3,6-tetrahydropyridin-4-yl)pyridazin-3-yl)phenol]  0.0889 µM
20. Nc1nnc(-c2ccccc2O)cc1N1CCN(Cc2ccncc2)CC1 [Example 98, 2-[6-amino-5-[4-(4-pyridylmethyl)piperazin-1-yl]pyridazin-3-yl]phenol]  0.0796 µM
21. COC1(Cc2ccccc2)CCN(c2cc(-c3ccccc3O)nnc2N)C1 (stereo not drawn) [Example 40, 2-(6-amino-5-(3-benzyl-3-methoxypyrrolidin-1-yl)pyridazin-3-yl)phenol]  0.0794 µM
22. CNC(=O)CN1CCN(c2cc(-c3ccccc3O)nnc2N)CC1 [Example 24, 2-(4-(3-amino-6-(2-hydroxyphenyl)pyridazin-4-yl)piperazin-1-yl)-N-methylacetamide]  0.0746 µM
23. Nc1nnc(-c2ccccc2O)cc1N1CCN(Cc2ncco2)CC1 [Example 97, 2-[6-amino-5-[4-(oxazol-2-ylmethyl)piperazin-1-yl]pyridazin-3-yl]phenol]  0.0714 µM
24. CC(=O)N1C2CCC1CN(c1cc(-c3ccccc3O)nnc1N)C2 [Example 66, 1-(3-(3-amino-6-(2-hydroxyphenyl)pyridazin-4-yl)-3,8-diazabicyclo[3.2.1]octan-8-yl)ethan-1-one]  0.0713 µM
25. C[C@@H]1CN(c2cc(-c3ccccc3O)nnc2N)CCN1C(=O)C(C)(C)O [Example 145, (R)-1-(4-(3-amino-6-(2-hydroxyphenyl)pyridazin-4-yl)-2-methylpiperazin-1-yl)-2-hydroxy-2-methylpropan-1-one]  0.0642 µM
26. Nc1nnc(-c2ccccc2O)cc1N1CCN(Cc2ccccc2)CC1 [Example 12, 2-(6-amino-5-(4-benzylpiperazin-1-yl)pyridazin-3-yl)phenol]  0.0612 µM
27. Nc1nnc(-c2ccccc2O)cc1C1CCOCC1 [Example 213, 2-(6-amino-5-(tetrahydro-2H-pyran-4-yl)pyridazin-3-yl)phenol]  0.0611 µM
28. CC1CN(c2cc(-c3ccccc3O)nnc2N)CCN1C(=O)CN(C)C (stereo not drawn) [Example 162, 1-(4-(3-amino-6-(2-hydroxyphenyl)pyridazin-4-yl)-2-methylpiperazin-1-yl)-2-(dimethylamino)ethanone]  0.0586 µM
29. CN(C)C(=O)C1CCN(c2cc(-c3ccccc3O)nnc2N)CC1 [Example 19, 1-(3-amino-6-(2-hydroxyphenyl)pyridazin-4-yl)-N,N-dimethylpiperidine-4-carboxamide]  0.0564 µM
30. Nc1nnc(-c2cc(F)ccc2O)cc1-c1ccccc1 [Example 230, 2-(6-amino-5-phenylpyridazin-3-yl)-4-fluorophenol]  0.0549 µM
31. C[C@H]1CN(c2cc(-c3ccccc3O)nnc2N)C[C@H](C)O1 [Example 244, 2-[6-amino-5-[(2S,6S)-2,6-dimethylmorpholin-4-yl]pyridazin-3-yl]phenol]  0.0379 µM
32. CC(C)(O)C1CCN(c2cc(-c3ccccc3O)nnc2N)CC1 [Example 20, 2-(6-amino-5-(4-(2-hydroxypropan-2-yl)piperidin-1-yl)pyridazin-3-yl)phenol]  0.0358 µM
33. CC(C(=O)N(C)C)n1cnc(-c2cc(-c3ccccc3O)nnc2N)c1 (stereo not drawn) [Example 197, 2-(4-(3-amino-6-(2-hydroxyphenyl)pyridazin-4-yl)-1H-imidazol-1-yl)-N,N-dimethylpropanamide]  0.0339 µM
34. C[C@@H]1CN(c2cc(-c3ccccc3O)nnc2N)C[C@H](C)O1 [Example 243, 2-[6-amino-5-[(2S,6R)-2,6-dimethylmorpholin-4-yl]pyridazin-3-yl]phenol]  0.0324 µM
35. Cn1ccnc1CN1CCN(c2cc(-c3ccccc3O)nnc2N)CC1 [Example 99, 2-[6-amino-5-[4-[(1-methylimidazol-2-yl)methyl]piperazin-1-yl]pyridazin-3-yl]phenol]  0.0324 µM
36. CC(C)[C@H](N)C(=O)N1CCN(c2cc(-c3ccccc3O)nnc2N)C[C@H]1C [Example 157, 2-Amino-1-((R)-4-(3-amino-6-(2-hydroxyphenyl)pvridazin-4-yl)-2-methylpiperazin-1-yl)-3-methylbutan-1-one]  0.0296 µM
37. C[C@@H]1CN(c2cc(-c3ccccc3O)nnc2N)CCN1S(=O)(=O)c1nccn1C [Example 118, (R)-2-(6-amino-5-(3-methyl-4-((1-methyl-1H-imidazol-2-yl)sulfonyl)piperazin-1-yl)pyridazin-3-yl)phenol]  0.0281 µM
38. C[C@H](C1CCN(c2cc(-c3ccccc3O)nnc2N)CC1)N(C)C [Example 65, (R)-2-(6-amino-5-(4-(1-(dimethylamino)ethyl)piperidin-1-yl)pyridazin-3-yl)phenol]  0.0276 µM
39. CC1CN(c2cc(-c3ccccc3O)nnc2N)CCN1C(=O)C1CC1c1ccccc1 (stereo not drawn) [Example 124, (4-(3-amino-6-(2-hydroxyphenyl)pyridazin-4-yl)-2-methylpiperazin-1-yl)(2-phenylcyclopropyl)methanone]  0.0258 µM
40. C[C@@H]1CN(c2cc(-c3ccccc3O)nnc2N)CCN1Cc1nccn1C [Example 93, (R)-2-(6-amino-5-(3-methyl-4-((1-methyl-1H-imidazol-2-yl)methyl)piperazin-1-yl)pyridazin-3-yl)phenol]  0.0238 µM
41. CCS(=O)(=O)N1CCN(c2cc(-c3ccccc3O)nnc2N)CC1C (stereo not drawn) [Example 110, 2-(6-amino-5-(4-(ethylsulfonyl)-3-methylpiperazin-1-yl)pyridazin-3-yl)phenol]  0.0219 µM
42. Nc1nnc(-c2ccccc2O)cc1C1=CCN(Cc2ccccc2)CC1 [Example 223, 2-(6-amino-5-(1-benzyl-1,2,3,6-tetrahydropyridin-4-yl)pyridazin-3-yl)phenol]  0.0205 µM
43. CC1CN(c2cc(-c3ccccc3O)nnc2N)CCN1S(=O)(=O)c1ccccc1 (stereo not drawn) [Example 109, 2-(6-amino-5-(3-methyl-4-(phenylsulfonyl)piperazin-1-yl)pyridazin-3-yl)phenol]  0.0176 µM
44. CC1CN(c2cc(-c3ccccc3O)nnc2N)CCN1C(=O)c1cncs1 (stereo not drawn) [Example 138, (4-(3-amino-6-(2-hydroxyphenyl)pyridazin-4-yl)-2-methylpiperazin-1-yl)(thiazol-5-yl)methanone]  0.0126 µM
45. Nc1nnc(-c2ccccc2O)cc1N1CC2CCC(C1)N2c1cnccn1 [Example 50, 2-(6-amino-5-(8-(pyrazin-2-yl)-3,8-diazabicyclo[3.2.1]octan-3-yl)pyridazin-3-yl)phenol]  0.0106 µM
